According to patent US8192962B2, “Processes for detecting toxic substances” (Daikin Industries, Ltd., priority 2001, dated 2012):

System: Genes belonging to other category
Test: DNA chip mRNA expression in yeast, genes belonging to other category (Table 9)
Format: cell-based, Saccharomyces cerevisiae S288C
How it was run: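 Ratios compare mRNA levels in stressed and control S. cerevisiae. Each toxicant was applied for two hours to log-phase cultures at 25° C. at a sub-lethal, growth-inhibiting level; fluorescent cDNA (Cy3- or Cy5-dUTP) was hybridized to a genome-wide yeast chip for over 12 h at 65° C.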

C[S+](C)[O-] [(15), dimethylsulfoxide] was tested, and the “The level of expressed mRNA in the presence of chemical substance/The level of expressed mRNA in the absence of chemical substance” value (yeast gene YAR010C) was 1.8, the “The level of expressed mRNA in the presence of chemical substance/The level of expressed mRNA in the absence of chemical substance” value (yeast gene YBL005W-A) was 0.9 and the “The level of expressed mRNA in the presence of chemical substance/The level of expressed mRNA in the absence of chemical substance” value (yeast gene YBL041W) was 1.3. The “The level of expressed mRNA in the presence of chemical substance/The level of expressed mRNA in the absence of chemical substance” value (yeast gene YBL043W) was 1.8, the “The level of expressed mRNA in the presence of chemical substance/The level of expressed mRNA in the absence of chemical substance” value (yeast gene YBR109C) was 1.4 and the “The level of expressed mRNA in the presence of chemical substance/The level of expressed mRNA in the absence of chemical substance” value (yeast gene YBR201W) was 1.6. The “The level of expressed mRNA in the presence of chemical substance/The level of expressed mRNA in the absence of chemical substance” value (yeast gene YBR214W) was 5.1, the “The level of expressed mRNA in the presence of chemical substance/The level of expressed mRNA in the absence of chemical substance” value (yeast gene YCL027W) was 3.6 and the “The level of expressed mRNA in the presence of chemical substance/The level of expressed mRNA in the absence of chemical substance” value (yeast gene YCR004C) was 0.8. For the same compound, the “The level of expressed mRNA in the presence of chemical substance/The level of expressed mRNA in the absence of chemical substance” value (yeast gene YCR088W) was 2.8, the “The level of expressed mRNA in the presence of chemical substance/The level of expressed mRNA in the absence of chemical substance” value (yeast gene YDL007W) was 1.4 and the “The level of expressed mRNA in the presence of chemical substance/The level of expressed mRNA in the absence of chemical substance” value (yeast gene YDL008W) was 0.7. The “The level of expressed mRNA in the presence of chemical substance/The level of expressed mRNA in the absence of chemical substance” value (yeast gene YDL126C) was 1.7, the “The level of expressed mRNA in the presence of chemical substance/The level of expressed mRNA in the absence of chemical substance” value (yeast gene YDL238C) was 1.3 and the “The level of expressed mRNA in the presence of chemical substance/The level of expressed mRNA in the absence of chemical substance” value (yeast gene YDR055W) was 5.7. The “The level of expressed mRNA in the presence of chemical substance/The level of expressed mRNA in the absence of chemical substance” value (yeast gene YDR085C) was 3.1, the “The level of expressed mRNA in the presence of chemical substance/The level of expressed mRNA in the absence of chemical substance” value (yeast gene YDR104C) was 1.4 and the “The level of expressed mRNA in the presence of chemical substance/The level of expressed mRNA in the absence of chemical substance” value (yeast gene YDR115W) was 0.8. For the same compound, the “The level of expressed mRNA in the presence of chemical substance/The level of expressed mRNA in the absence of chemical substance” value (yeast gene YDR259C) was 2.9, the “The level of expressed mRNA in the presence of chemical substance/The level of expressed mRNA in the absence of chemical substance” value (yeast gene YDR315C) was 1.5 and the “The level of expressed mRNA in the presence of chemical substance/The level of expressed mRNA in the absence of chemical substance” value (yeast gene YDR358W) was 0.9. The “The level of expressed mRNA in the presence of chemical substance/The level of expressed mRNA in the absence of chemical substance” value (yeast gene YDR388W) was 2.6, the “The level of expressed mRNA in the presence of chemical substance/The level of expressed mRNA in the absence of chemical substance” value (yeast gene YDR432W) was 2.6 and the “The level of expressed mRNA in the presence of chemical substance/The level of expressed mRNA in the absence of chemical substance” value (yeast gene YDR481C) was 3.5. For the same compound, the “The level of expressed mRNA in the presence of chemical substance/The level of expressed mRNA in the absence of chemical substance” value (yeast gene YDR510W) was 2.2, the “The level of expressed mRNA in the presence of chemical substance/The level of expressed mRNA in the absence of chemical substance” value (yeast gene YEL066W) was 1.0 and the “The level of expressed mRNA in the presence of chemical substance/The level of expressed mRNA in the absence of chemical substance” value (yeast gene YER107C) was 0.7. The “The level of expressed mRNA in the presence of chemical substance/The level of expressed mRNA in the absence of chemical substance” value (yeast gene YER159C) was 2.2, the “The level of expressed mRNA in the presence of chemical substance/The level of expressed mRNA in the absence of chemical substance” value (yeast gene YFL028C) was 0.8 and the “The level of expressed mRNA in the presence of chemical substance/The level of expressed mRNA in the absence of chemical substance” value (yeast gene YGL158W) was 2.3. The “The level of expressed mRNA in the presence of chemical substance/The level of expressed mRNA in the absence of chemical substance” value (yeast gene YGL229C) was 0.2, the “The level of expressed mRNA in the presence of chemical substance/The level of expressed mRNA in the absence of chemical substance” value (yeast gene YGR136W) was 2.6 and the “The level of expressed mRNA in the presence of chemical substance/The level of expressed mRNA in the absence of chemical substance” value (yeast gene YGR213C) was 6.5. The “The level of expressed mRNA in the presence of chemical substance/The level of expressed mRNA in the absence of chemical substance” value (yeast gene YGR257C) was 1.3, the “The level of expressed mRNA in the presence of chemical substance/The level of expressed mRNA in the absence of chemical substance” value (yeast gene YHR071W) was 3.0 and the “The level of expressed mRNA in the presence of chemical substance/The level of expressed mRNA in the absence of chemical substance” value (yeast gene YHR139C) was 1.9. For the same compound, the “The level of expressed mRNA in the presence of chemical substance/The level of expressed mRNA in the absence of chemical substance” value (yeast gene YIL140W) was 3.3, the “The level of expressed mRNA in the presence of chemical substance/The level of expressed mRNA in the absence of chemical substance” value (yeast gene YJL030W) was 1.5 and the “The level of expressed mRNA in the presence of chemical substance/The level of expressed mRNA in the absence of chemical substance” value (yeast gene YJL073W) was 2.6. For the same compound, the “The level of expressed mRNA in the presence of chemical substance/The level of expressed mRNA in the absence of chemical substance” value (yeast gene YJL116C) was 1.0, the “The level of expressed mRNA in the presence of chemical substance/The level of expressed mRNA in the absence of chemical substance” value (yeast gene YJR004C) was 3.2 and the “The level of expressed mRNA in the presence of chemical substance/The level of expressed mRNA in the absence of chemical substance” value (yeast gene YJR029W) was 1.8. The “The level of expressed mRNA in the presence of chemical substance/The level of expressed mRNA in the absence of chemical substance” value (yeast gene YJR086W) was 2.0, the “The level of expressed mRNA in the presence of chemical substance/The level of expressed mRNA in the absence of chemical substance” value (yeast gene YJR099W) was 0.5 and the “The level of expressed mRNA in the presence of chemical substance/The level of expressed mRNA in the absence of chemical substance” value (yeast gene YJR122W) was 0.8. For the same compound, the “The level of expressed mRNA in the presence of chemical substance/The level of expressed mRNA in the absence of chemical substance” value (yeast gene YKL008C) was 1.3, the “The level of expressed mRNA in the presence of chemical substance/The level of expressed mRNA in the absence of chemical substance” value (yeast gene YKL039W) was 3.1 and the “The level of expressed mRNA in the presence of chemical substance/The level of expressed mRNA in the absence of chemical substance” value (yeast gene YKL041W) was 1.0. The “The level of expressed mRNA in the presence of chemical substance/The level of expressed mRNA in the absence of chemical substance” value (yeast gene YKL096W) was 2.3 and the “The level of expressed mRNA in the presence of chemical substance/The level of expressed mRNA in the absence of chemical substance” value (yeast gene YKL139W) was 1.0.
